PubChem BioAssay AID1259411 (Chemical Carcinogenesis Research Information System (CCRIS), 2018)
The source made the active and inactive calls. No rule for the calls is given here.

System: rodent carcinogenicity bioassays, tumor incidence
Assay: CCRIS carcinogenicity studies
Procedure, shortened: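 NCI-built, expert-reviewed records of carcinogenicity and related test outcomes (mutagenicity, tumor promotion/inhibition) compiled from published and report sources, historical span 1985-2011, not updated.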

With `NC(=O)c1ccccc1C(N)=O` the carcinogen call (Species: MOUSE, Strain/Sex: B6C3F1/FEMALE, Route: ORAL, Dose: 0, 6200, 12500, 25000 PPM IN DIET FOR 103-105 WK, Dose: 0, 6200, 12500, 25000 PPM IN DIET FOR 103-105 WK) was “inactive; negative”, the carcinogen call (Species: MOUSE, Strain/Sex: B6C3F1/MALE, Route: ORAL, Dose: 0, 25000, 50000 PPM IN DIET FOR 105 WK, Dose: 0, 25000, 50000 PPM IN DIET FOR 105 WK) was “inactive; negative” and the carcinogen call (Species: RAT, Strain/Sex: F344/FEMALE, Route: ORAL, Dose: 0, 5000, 10000 PPM IN DIET FOR 106 WK, Dose: 0, 5000, 10000 PPM IN DIET FOR 106 WK) was “inactive; negative”. For the same molecule, the carcinogen call (Species: RAT, Strain/Sex: F344/MALE, Route: ORAL, Dose: 0, 15000, 30000 PPM IN DIET FOR 106 WK, Dose: 0, 15000, 30000 PPM IN DIET FOR 106 WK) was “inactive; negative”.
For `O=C1OC(c2ccc(O)cc2)(c2ccc(O)cc2)c2ccccc21`, the carcinogen call (Species: MOUSE, Strain/Sex: B6C3F1/FEMALE, Route: ORAL, Dose: 0, 3000, 6000, 12000 PPM IN DIET FOR 2 YR (STUDY DURATION: 2 YR), Dose: 0, 3000, 6000, 12000 PPM IN DIET FOR 2 YR (STUDY DURATION: 2 YR), Tumor Site: Type of Lesion: OVARY: BENIGN SEX-CORD STROMAL TUMOR, LIVER: HISTIOCYTIC SARCOMA, LYMPHATIC SYSTEM: MALIGNANT LYMPHOMA, MALIGNANT LYMPHO, Tumor Site: Type of Lesion: OVARY: BENIGN SEX-CORD STROMAL TUMOR, LIVER: HISTIOCYTIC SARCOMA, LYMPHATIC SYSTEM: MALIGNANT LYMPHOMA, MALIGNANT LYMPHO) was “active; positive”, the carcinogen call (Species: MOUSE, Strain/Sex: B6C3F1/MALE, Route: ORAL, Dose: 0, 3000, 6000, 12000 PPM IN DIET FOR 2 YR (STUDY DURATION: 2 YR), Dose: 0, 3000, 6000, 12000 PPM IN DIET FOR 2 YR (STUDY DURATION: 2 YR), Tumor Site: Type of Lesion: LIVER: HISTIOCYTIC SARCOMA, LYMPHATIC SYSTEM: MALIGNANT LYMPHOMA (THYMIC ORIGIN)) was “active; positive” and the carcinogen call (Species: RAT, Strain/Sex: F344/FEMALE, Route: ORAL, Dose: 0, 12000, 25000, 50000 PPM IN DIET FOR 2 YR (STUDY DURATION: 2 YR), Dose: 0, 12000, 25000, 50000 PPM IN DIET FOR 2 YR (STUDY DURATION: 2 YR), Tumor Site: Type of Lesion: ADRENAL MEDULLA: BENIGN PHEOCHROMOCYTOMA, BENIGN OR MALIGNANT PHEOCHROMOCYTOMA) was “active; positive”. The carcinogen call (Species: RAT, Strain/Sex: F344/MALE, Route: ORAL, Dose: 0, 12000, 25000, 50000 PPM IN DIET FOR 2 YR (STUDY DURATION: 2 YR), Dose: 0, 12000, 25000, 50000 PPM IN DIET FOR 2 YR (STUDY DURATION: 2 YR), Tumor Site: Type of Lesion: ADRENAL MEDULLA: BENIGN PHEOCHROMOCYTOMA, KIDNEY(RENAL TUBULE): ADENOMA, ADENOMA OR CARCINOMA) was “active; positive”.
For `OO`, the carcinogen call (Species: MOUSE, Strain/Sex: C57BL/MALE,FEMALE, Route: ORAL, Dose: 0, 0.1%, 0.4% IN DRINKING WATER (STUDY DURATION: 108 WK), Dose: 0, 0.1%, 0.4% IN DRINKING WATER (STUDY DURATION: 108 WK), Tumor Site: Type of Lesion: DUODENUM: ADENOMA, ADENOCARCINOMA) was “active; positive”.
For `O=[N+]([O-])c1ccc2ccc3cc4ccccc4c4ccc1c2c34`, the carcinogen call (Species: MOUSE, Strain/Sex: B6C3F1/MALE, Route: INTRAPERITONEAL, Dose: 0, 400 NMOL IN 35 µL DMSO ON DAYS 1 (1/7 TOTAL DOSE), 8 (2/7 TOTAL DOSE), AND 15 (4/7 TOTAL DOSE) AFTER BIRTH (STUDY DUR) was “inactive; negative” and the carcinogen call (Species: RAT, Strain/Sex: F344/MALE, Route: SUBCUTANEOUS, Dose: 0, 500, 1000 UG SUSPENDED IN BEESWAX/TRICAPRYLIN (1:1) ONCE (STUDY DURATION: LIFETIME), Dose: 0, 500, 1000 UG SUSPENDED IN BEESWAX/TRICAPRYLIN (1:1) ONCE (STUDY DURATION: LIFETIME)) was “inactive; negative”.
`CCC(C)[C@H]1O[C@]2(CC[C@@H]1C)CC1C[C@@H](C/C=C(\C)[C@@H](O[C@H]3C[C@H](OC)[C@@H](OC4C[C@H](OC)[C@@H](O)[C@H](C)O4)[C@H](C)O3)[C@@H](C)/C=C/C=C3\CO[C@@H]4[C@H](O)C(C)=C[C@@H](C(=O)O1)[C@]34O)O2` (stereo partly drawn) (tested in a mixture with another compound) was tested, and the carcinogen call (Species: RAT, Strain/Sex: WISTAR/MALE, Route: ORAL, Dose: 0, 2 PPM IN DIET FOR DURATION OF STUDY (STUDY DURATION: 1 YR)) was “inactive; negative”.
With `C1CSCN1` the carcinogen call (Species: MOUSE, Strain/Sex: CD-1/FEMALE, Route: DERMAL, Dose: 0, 50 UMOL/0.1 ML DMSO 2/WK FOR 5 WK FOLLOWED 1 WK LATER BY 0.1 ML ACETONE 2/WK FOR 47 WK (STUDY DURATION: 52 WK)) was “inactive; negative”.
`ClC(Cl)(Cl)c1ccccc1` was tested, and the carcinogen call (Species: MOUSE, Strain/Sex: ICR/FEMALE, Route: GAVAGE, Dose: 0, 0.0315, 0.125, 0.5, 2 µL IN STERILIZED SESAME OIL 2/WK FOR 25 WK (STUDY DURATION: 18 MO), Dose: 0, 0.0315, 0.125, 0.5, 2 µL IN STERILIZED SESAME OIL 2/WK FOR 25 WK (STUDY DURATION: 18 MO), Tumor Site: Type of Lesion: FORESTOMACH: SQUAMOUS CELL CARCINOMA, LUNG: ADENOCARCINOMA OR ADENOMA, HEMATOPOIETIC SYSTEM: TUMORS, Tumor Site: Type of Lesion: FORESTOMACH: SQUAMOUS CELL CARCINOMA, LUNG: ADENOCARCINOMA OR ADENOMA, HEMATOPOIETIC SYSTEM: TUMORS) was “active; positive”.
For `CCO`, the carcinogen call (Species: MOUSE, Strain/Sex: B6C3F1/FEMALE (48/GROUP), Route: ORAL, Dose: 2.5% OR 5% IN DRINKING WATER (STUDY DURATION: 2 YRS)) was “inactive; negative; inadequate study to determine carcinogenic activity”, the carcinogen call (Species: MOUSE, Strain/Sex: B6C3F1/MALE (48/GROUP), Route: ORAL, Dose: 2.5% OR 5% IN DRINKING WATER (STUDY DURATION: 2 YRS), Tumor Site: Type of Lesion: LIVER: HEPATOCELLULAR ADENOMA OR CARCINOMA (COMBINED)) was “active; positive; inadequate study to determine carcinogenic activity” and the carcinogen call (Species: RAT, Strain/Sex: SPRAGUE-DAWLEY/FEMALE, Route: ORAL, Dose: 0, 1, 3% IN LIQUID DIET FOR 104 WK (STUDY DURATION: 120 WK), Dose: 0, 1, 3% IN LIQUID DIET FOR 104 WK (STUDY DURATION: 120 WK)) was “inactive; negative”. The carcinogen call (Species: RAT, Strain/Sex: SPRAGUE-DAWLEY/MALE, Route: ORAL, Dose: 0, 1, 3% IN LIQUID DIET FOR 104 WK (STUDY DURATION: 120 WK), Dose: 0, 1, 3% IN LIQUID DIET FOR 104 WK (STUDY DURATION: 120 WK)) was “inactive; negative”.
